# Measured values taken from patent US20150190440A1, “BLOOD PRESSURE REDUCING COMPOSITION FABRICATED BY USING MONASCUS PURPUREUS NTU 568 AND PRIMER FOR THE MONASCUS PURPUREUS NTU 568” (Sunway Biotech Co., LTD, priority 2014, published 2015).
# Columns and labels:
# Assay type in all cases: in vivo, rat
# [1] = test system: Spontaneous hypertensive rats (SHRs); assay: Liver function indexes of SHRs; settings: M: SHR, amlodipine 0.4 mgkg-1day-1
# From the text: (§1) Spontaneous hypertensive rats (SHRs) and Wistar-Kyoto strains of normotensive rats (WKYs) are chosen to be experiment animals, wherein the SHRs would spontaneously suffer from the hypertension when they grow to 5˜6 weeks old. Herein, 8-week old SHRs are used for carrying out the experiments, and these 8-week old SHRs and WKYs are pre-fed with chew diet and water for 5 weeks before starting the experiments. Herein, it needs to further explain that, the experiment groups listed in Table 6 are divided to 9 groups. The rats in the 9 groups are fed with the main feeding stuffs (i.e., chew diet and water) during first week to 13-th week. Moreover, the rats in the 9 groups are fed with the main feeding stuffs as well as the extract feeding stuffs at 14-th week in order to accomplish one single oral administration experiments; therefore, the rats in the 9 groups are continuously fed with the main feeding stuffs as well as the extract feeding stuffs starting from 14-th week and continuing for 8 weeks, so as to carry out one chronic administration experiment. The designed experiment groups consist of:
# With reference to following Table 11, which record the liver function indexes data of SHRs and WKYs in the experiment groups listed in Table 6. […] Wherein the liver function indexes data include: aspartate aminotransferase (AST), alanine aminotransferase (ALT), alkaline phosphatase, albumin, globulin, γ-Glutamyltransferase (γ-GT), total protein, and A/G ratio.
# [2] = test system: Spontaneous hypertensive rats (SHRs); assay: Heart rate of SHRs; settings: M: SHR, amlodipine 0.4 mgkg-1day-1
# From the text: as §1
# Continuously, please refer to following Table 10, which record the heart rate data of SHRs and WKYs in the experiment groups listed in Table 6. From Table 10, it can find that the heart rate of SHRs in 1R, 5R, 1RM, and 5RM groups are normal comparing to the heart rate of SHRs in C group. Moreover, the heart rate of SHRs in W1R and W5R groups are normal comparing to the heart rate of WKYs in WC group.
# [3] = test system: Spontaneous hypertensive rats (SHRs); assay: Blood pressure in 8-week chronic administration experiment in SHRs; settings: M: SHR
# From the text: (§2) Spontaneous hypertensive rats (SHRs) and Wistar-Kyoto strains of normotensive rats (WKYs) are chosen to be experiment animals, wherein the SHRs would spontaneously suffer from the hypertension when they grow to 5˜6 weeks old. Herein, 8-week old SHRs are used for carrying out the experiments, and these 8-week old SHRs and WKYs are pre-fed with chew diet and water for 5 weeks before starting the experiments. […] The rats in the 9 groups are fed with the main feeding stuffs (i.e., chew diet and water) during first week to 13-th week. Moreover, the rats in the 9 groups are fed with the main feeding stuffs as well as the extract feeding stuffs at 14-th week in order to accomplish one single oral administration experiments; therefore, the rats in the 9 groups are continuously fed with the main feeding stuffs as well as the extract feeding stuffs starting from 14-th week and continuing for 8 weeks, so as to carry out one chronic administration experiment.
# Moreover, because the experiments use “2.2 g” as a standard feeding dosage, the “1-fold” in Table 6 can be calculated to 176 mgkg^−1day^−1 according to BSA value of the SHRs. Herein, it needs to further explain that, M group is taken as a positive control group because amlodipine is a well-known blood pressure lowering substance. In the experiments, the lowest effective dosage (i.e., 1-fold dosage) for amlodipine is defined to 0.4 mgkg^−1day^−1.
# [4] = test system: Spontaneous hypertensive rats (SHRs); assay: Blood lipids of SHRs; settings: M: SHR, amlodipine 0.4 mgkg-1day-1
# From the text: as §1, with “experiment.” for “experiment. The designed experiment groups consist of:”
# [5] = test system: Spontaneous hypertensive rats (SHRs); assay: Kidney function, electrolytes and creatine phosphokinase indexes of SHRs; settings: M: SHR, amlodipine 0.4 mgkg-1day-1
# From the text: as §1
# Continuously, please refer to following Table 12, which record the data of kidney function indexes, electrolytes indexes and creatine phosphokinase indexes of SHRs and WKYs in the experiment groups listed in Table 6. From Table 12, it can find that the kidney function indexes, the electrolytes indexes and the creatine phosphokinase indexes of SHRs in 1R, 5R, 1RM, and 5RM groups are normal comparing to the kidney function indexes, the electrolytes indexes and the creatine phosphokinase indexes of SHRs in C group. Moreover, the kidney function indexes, the electrolytes indexes and the creatine phosphokinase indexes of SHRs in W1R and W5R groups are normal comparing to the kidney function indexes, the electrolytes indexes and the creatine phosphokinase indexes of WKYs in WC group. Wherein the kidney function indexes include blood urea nitrogen (BUN), creatinine and uric acid, and the electrolytes indexes include sodium and potassium. […] It is well know that, when the kidney is at a kidney failure situation, the concentration of creatinine and uric acid in blood serum would increase. […] It is well know that, when the muscle is subject to damage, the concentration of CPK in blood serum would increase.
# [6] = test system: Spontaneous hypertensive rats (SHRs); assay: Blood pressure after one single oral administration in SHRs; settings: M: SHR
# From the text: as §2
# According to the body surface area (BSA) equation provided by Food and Drug Administration (FDA), the BSA of a standard person with the body height of 170 cm and the body weight of 65 kg can be calculated through the mathematical calculation formula of BSA (m^2)=0.003207{H^0.3×W^[0.07285−(0.0188×LOG (w))]}, wherein the BSA value obtained from aforesaid calculation formula for the standard person is 1.762 m^2. On the other hand, the BSA value for the SHRs can also be calculated through the mathematical calculation formula of BSA (m^2) (8.99 W^0.6899)/100, and the BSA value is 0.049 m^2. Moreover, because the experiments use “2.2 g” as a standard feeding dosage, the “1-fold” in Table 6 can be calculated to 176 mgkg^−1day^−1 according to BSA value of the SHRs. Herein, it needs to further explain that, M group is taken as a positive control group because amlodipine is a well-known blood pressure lowering substance. In the experiments, the lowest effective dosage (i.e., 1-fold dosage) for amlodipine is defined to 0.4 mgkg^−1day^−1.
# [7] = amlodipine 0.4 mgkg-1day-1, 0 week
# [8] = amlodipine 0.4 mgkg-1day-1, 2 week
# [9] = amlodipine 0.4 mgkg-1day-1, 4 week
# [10] = amlodipine 0.4 mgkg-1day-1, 6 week
# [11] = amlodipine 0.4 mgkg-1day-1, 8 week
# [12] = amlodipine 0.4 mgkg-1day-1, 0 hr
# [13] = amlodipine 0.4 mgkg-1day-1, 4 hr
# [14] = amlodipine 0.4 mgkg-1day-1, 8 hr
# [15] = amlodipine 0.4 mgkg-1day-1, 24 hr
structure (smiles),measurement,setting,value
CCOC(=O)C1=C(COCCN)NC(C)=C(C(=O)OC)C1c1ccccc1Cl (centres unmarked) [amlodipine],A/G ratio,[1],2.1 ± 0.4
same,ALT,[1],85.7 ± 6.1 U/L
same,AST,[1],125.8 ± 4.6 U/L
same,Albumin,[1],5.4 ± 0.2 g/dL
same,Alkaline phosphatase,[1],143.3 ± 7.6 IU/L
same,Globulin,[1],2.6 ± 0.1 g/dL
same,Total protein,[1],8.2 ± 0.1 g/dL
same,Heart rate,[2]; 0 hr,402 ± 6.9 bpm
same,Heart rate,[2]; 2 week,402 ± 6.7 bpm
same,Heart rate,[2]; 4 week,404 ± 4.8 bpm
same,Heart rate,[2]; 6 week,403 ± 6.1 bpm
same,Heart rate,[2]; 8 week,402 ± 3.0 bpm
same,Heart rate,[2]; 4 hr,401 ± 6.5 bpm
same,Heart rate,[2]; 8 hr,400 ± 4.8 bpm
same,Heart rate,[2]; 24 hr,402 ± 4.9 bpm
same,DBP,[3]; [7],143 ± 2.9 mmHg
same,SBP,[3]; [7],180 ± 3.6 mmHg
same,DBP,[3]; [8],145 ± 3.6 mmHg
same,SBP,[3]; [8],178 ± 5.4 mmHg
same,DBP,[3]; [9],140 ± 3.8 mmHg
same,SBP,[3]; [9],171 ± 3.1 mmHg
same,DBP,[3]; [10],139 ± 1.9 mmHg
same,SBP,[3]; [10],175 ± 7.6 mmHg
same,DBP,[3]; [11],135 ± 2.7 mmHg
same,SBP,[3]; [11],175 ± 7.6 mmHg
same,Cholesterol,[4],79.8 ± 3.6 mg/dL
same,Cholesterol/HDL-C,[4],1.3 ± 0.1
same,HDL-C,[4],60.3 ± 1.9 mg/dL
same,LDL-C,[4],10.0 ± 0.7 mg/dL
same,Triacylglycerol,[4],69.3 ± 6.8 mg/dL
same,BUN,[5],23.7 ± 0.8 mg/dL
same,Creatinine,[5],0.48 ± 0.1 mg/dL
same,Creatinine phosphokinase,[5],287.0 ± 12.2 U/L
same,Potassium,[5],8.8 ± 0.4 meq/L
same,Sodium,[5],152.4 ± 0.9 meq/L
same,Uric acid,[5],5.8 ± 0.6 mg/dL
same,DBP,[6]; [12],143 ± 2.9 mmHg
same,SBP,[6]; [12],180 ± 3.6 mmHg
same,DBP,[6]; [13],143 ± 3.8 mmHg
same,SBP,[6]; [13],178 ± 5.4 mmHg
same,DBP,[6]; [14],134 ± 4.9 mmHg
same,SBP,[6]; [14],171 ± 3.1 mmHg
same,DBP,[6]; [15],137 ± 4.2 mmHg
same,SBP,[6]; [15],175 ± 7.6 mmHg
